In PubChem BioAssay AID1253 (Columbia University Molecular Screening Center, 2008):
Activity calls are given as the source filed them.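 The calls were made as follows: active = IC50 under 10 µM in the follow-up dose response; inactive = IC50 10 µM or more, or under 40% single-dose inhibition.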

Molecular target: Tyrosine-protein phosphatase non-receptor type 22 (Homo sapiens) (UniProt Q9Y2R2)
Experiment: LYP phosphatase inhibitors, confirmation, biochemical, DiFMUP fluorescence, retest and dose response (AID 1253)
Conditions: recombinant LYP, at 10 µM

Tyrosine-protein phosphatase non-receptor type 22 (Homo sapiens), sequence (Q9Y2R2 whole entry, looked up): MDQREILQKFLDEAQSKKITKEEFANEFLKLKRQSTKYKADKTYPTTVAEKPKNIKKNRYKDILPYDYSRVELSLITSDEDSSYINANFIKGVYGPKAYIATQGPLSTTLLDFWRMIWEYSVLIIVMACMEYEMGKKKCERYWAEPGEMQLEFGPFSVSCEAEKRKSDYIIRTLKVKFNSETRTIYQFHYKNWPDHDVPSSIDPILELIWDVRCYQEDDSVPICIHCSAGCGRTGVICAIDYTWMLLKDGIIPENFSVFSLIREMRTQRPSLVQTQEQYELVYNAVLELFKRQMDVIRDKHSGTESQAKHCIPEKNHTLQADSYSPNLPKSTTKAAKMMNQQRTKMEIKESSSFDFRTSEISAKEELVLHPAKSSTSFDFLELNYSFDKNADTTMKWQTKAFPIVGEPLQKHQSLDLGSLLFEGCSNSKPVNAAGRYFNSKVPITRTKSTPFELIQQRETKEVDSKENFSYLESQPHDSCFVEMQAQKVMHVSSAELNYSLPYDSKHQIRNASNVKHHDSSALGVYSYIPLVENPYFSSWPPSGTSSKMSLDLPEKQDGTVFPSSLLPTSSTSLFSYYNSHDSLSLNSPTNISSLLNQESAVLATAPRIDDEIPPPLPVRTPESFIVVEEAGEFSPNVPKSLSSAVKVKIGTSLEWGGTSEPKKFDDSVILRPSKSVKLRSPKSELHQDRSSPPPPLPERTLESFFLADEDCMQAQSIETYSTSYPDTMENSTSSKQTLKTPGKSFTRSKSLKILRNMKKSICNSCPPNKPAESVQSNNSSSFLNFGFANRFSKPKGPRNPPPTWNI

SMILES	inhibition
CCNC(=O)COc1cc(C)c(Cl)c(C)c1	inactive
CC1CCc2c(C(=O)Nc3nccs3)csc2C1 (stereo unspecified)	inactive
COCc1cc(C)nc(Nc2ccccc2C)c1C#N	inactive
Cc1cc(C)n2c(SCC(=O)N3CCN(S(=O)(=O)c4ccc(Cl)cc4)CC3)nnc2n1	inactive
O=C1C2C(C(=O)N1CCc1ccccc1)C1C=CC2C12CC2 (stereo unspecified)	inactive
COc1ccc(S(=O)(=O)N2CC3CCCN3c3cc(C(F)(F)F)ccc32)cc1 (stereo unspecified)	inactive
O=C(CSc1nnc(-c2cccs2)n1-c1cccc(Cl)c1)c1cccc2c1OCCO2	inactive
CCOc1ccc(N2C(=O)CS/C2=C(\C(Cl)=C(Cl)Cl)[N+](=O)[O-])cc1	inactive
Cc1ccc(C)c(OCC(=O)N/N=C/c2c(C)nn(-c3ccccc3)c2Cl)c1	inactive
Cc1ccc(-c2nnc(CSc3nnc(COc4cccc5ccccc45)n3-c3ccccc3)o2)cc1	inactive
O=C(NCc1ccco1)c1ccc2nc3sc4c(c3c(=O)n2c1)CCCC4	inactive

Next, values leading:

inhibition	SMILES
inactive	O=C(Cn1cnc2ccccc21)Nc1ccc(C(=O)O)cc1
inactive	O=C(Nc1ccc2oc(-c3cccc4ccccc34)nc2c1)c1ncn[nH]1
inactive	O=C(N/N=C/C=C/c1ccccc1)c1cc2c(ccc3ccccc32)o1
inactive	Cc1ccc2oc3nc(C)c(C(=O)Nc4cccc(C(F)(F)F)c4)cc3c(=O)c2c1
inactive	Cc1ccc(Cn2c(=N)c(C(=O)NCc3ccco3)cc3c(=O)n4ccccc4nc32)cc1
